Results reported in US11685739B2, “High penetration drugs and their compositions thereof for treatment of Parkinson diseases” (TECHFIELDS PHARMA CO., LTD, priority 2013, dated 2023).
Like-named read-outs stand apart in the source and are kept apart here.

Tests used:
[1] = test system: motor function deficits induced by 6-OHDA in Parkinson's disease (PD) model; assay: Rotarod test in rats with 6-OHDA lesion, Parkinson's disease (PD) model; assay type: in vivo, Sprague-Dawley rats; details: Example 31; L-DOPA orally, pro-drug transdermally
Experimental: Test subjects (Sprague-Dawley rats) were prepared, grouped, and tested following the protocol below: • 1. 200 Sprague-Dawley rats (male, 200-230 g) underwent brain stereotaxic surgery after 1 week acclamation in animal facility; • 2. After anesthesia, a bur hole (1 mm in diameter) was made on skull on the left side with a motor drill based on the coordinates: AP +0.5 mm, ML −2.8 mm, DV 6.0 mm relative to Bregma; • 3. 6-OHDA (20 μg at 5 mg/mL) or sterile saline was injected into the left striatum with a microsyringe fitted with a 26-gauge steel cannula. The chemical caused the retrograde neurodegeneration in the distal substantia nigra and impairs dopamine transmission in the nigro-striatal pathway, which eventually led to functional disturbance of motor activities; • 4. Apomorphine and classic rotation test was carried out to screen animals at the end of week 3 post 6-OHDA treatment. Animals that matched lesion type and apomorphine-induced rotational scores were allotted to 11 groups; and • 5. Rats were divided into 11 groups (n=12), each group was applied with the drug(s) at the doses specified in Table 2:
• 6. Dose Formulations • (1) L-DOPA in water (3 mg/mL) was the positive control solution for group 1 (orally for group 1, transdermally for groups 2-11). The volume of administration was 2 mL/kg. Vehicle solution (negative control solution for group 2) was 30% ethanol (v/v). The volume of administration was 1286 μL/kg. Other test solutions (groups 3-11) were freshly prepared every day. • (2) Preparation method of test solutions for groups 3-5: 50.33 mg of Drug A was dissolved in 10 mL of 30% ethanol(v/v). This solution was the stock solution[(2)a]. • a. The test solution for group 5 (high dose group) of Drug A: The stock solution [(2)a] was the test solution for Group 5. The volume of administration was 1286 μL/kg. • b. The test solution for group 4 (moderate dose group) of Drug A: 3.00 mL of the stock solution [(2)a] was diluted to final volume 9.00 mL with 30% ethanol(v/v). This solution was the test solution for Group 4. The volume of administration was 1286 μL/kg. • c. […]

[2] = test system: motor function deficits induced by 6-OHDA in Parkinson's disease (PD) model; assay: as above; assay type: in vivo, Sprague-Dawley rats; details: for Side effects (dyskinesia at peak dose, end-of-dose deterioration of function etc.): L-DOPA orally
[3] = human, pH 7.4

The cumulative amount of test compounds ([3]; 1 h): 0.001 mg
The cumulative amount of test compounds ([3]; 2 h): 0.001 mg
The cumulative amount of test compounds ([3]; 4 h): 0.002 mg
The cumulative amount of test compounds ([3]; 8 h): 0.003 mg
Compound: NC(Cc1ccc(O)c(O)c1)C(=O)O (stereo not drawn) [Compound-31, 2-amino-3-(3,4-dihydroxyphenyl)propanoic acid]
Side effects (dyskinesia at peak dose, end-of-dose deterioration of function etc.) [1]: caused nausea, vomiting, gastrointestinal bleeding, dyskinesia at peak dose, and end-of-dose deterioration of function
Efficacy in Rotarod test comparing to Vehicle group ([2]; Example 31, 6 mg/kg orally (Group 1), three-week treatment): did not exhibit efficacy
Efficacy in Rotarod test comparing to the negative control group ([2]; Example 33, 6 mg/kg orally, four-week treatment): did not exhibit efficacy
Side effects (dyskinesia at peak dose, end-of-dose deterioration of function etc.) ([2]; Example 33, pro-drug transdermally): caused nausea, vomiting, gastrointestinal bleeding, dyskinesia at peak dose, and end-of-dose deterioration of function
Efficacy in Rotarod test comparing to Vehicle group ([2]; Example 35, 6 mg/kg orally, four-week treatment): did not exhibit efficacy
Side effects (dyskinesia at peak dose, end-of-dose deterioration of function etc.) ([2]; Example 35, pro-drug of dopamine transdermally): caused nausea, vomiting, gastrointestinal bleeding, dyskinesia at peak dose, and end-of-dose deterioration of function
Efficacy in Rotarod test comparing to Vehicle group ([2]; Example 36, 6 mg/kg orally, four-week treatment): did not exhibit efficacy
Side effects (dyskinesia at peak dose, end-of-dose deterioration of function etc.) ([2]; Example 36, pro-drug transdermally): caused nausea, vomiting, gastrointestinal bleeding, dyskinesia at peak dose, and end-of-dose deterioration of function
